Test results from publication PMC4858680, “A platinum-based hybrid drug design approach to circumvent acquired resistance to molecular targeted tyrosine kinase inhibitors” (Scientific Reports, 2016).
Residue numbers refer to the chain shown, from its start.

What was measured:
HEK293 Mock transfected = experiment: Anticancer activity in mock transfected HEK293; type: cell-based; conditions: Bcr-Abl negative
[1] = biological target: ABL1(Q252H)-phosphorylated (Homo sapiens, UniProt P00519, Q252H); conditions: 10 μM
ABL1-nonphosphorylated = ABL1-nonphosphorylated (Homo sapiens, UniProt P00519); conditions: 10 μM
FLT3(D835Y) = biological target: T1, FLT3(D835Y) (Homo sapiens, UniProt P36888, D835Y); experiment: biochemical; conditions: read-out: Percent control
T1 sequence (P36888 27-993 D835Y): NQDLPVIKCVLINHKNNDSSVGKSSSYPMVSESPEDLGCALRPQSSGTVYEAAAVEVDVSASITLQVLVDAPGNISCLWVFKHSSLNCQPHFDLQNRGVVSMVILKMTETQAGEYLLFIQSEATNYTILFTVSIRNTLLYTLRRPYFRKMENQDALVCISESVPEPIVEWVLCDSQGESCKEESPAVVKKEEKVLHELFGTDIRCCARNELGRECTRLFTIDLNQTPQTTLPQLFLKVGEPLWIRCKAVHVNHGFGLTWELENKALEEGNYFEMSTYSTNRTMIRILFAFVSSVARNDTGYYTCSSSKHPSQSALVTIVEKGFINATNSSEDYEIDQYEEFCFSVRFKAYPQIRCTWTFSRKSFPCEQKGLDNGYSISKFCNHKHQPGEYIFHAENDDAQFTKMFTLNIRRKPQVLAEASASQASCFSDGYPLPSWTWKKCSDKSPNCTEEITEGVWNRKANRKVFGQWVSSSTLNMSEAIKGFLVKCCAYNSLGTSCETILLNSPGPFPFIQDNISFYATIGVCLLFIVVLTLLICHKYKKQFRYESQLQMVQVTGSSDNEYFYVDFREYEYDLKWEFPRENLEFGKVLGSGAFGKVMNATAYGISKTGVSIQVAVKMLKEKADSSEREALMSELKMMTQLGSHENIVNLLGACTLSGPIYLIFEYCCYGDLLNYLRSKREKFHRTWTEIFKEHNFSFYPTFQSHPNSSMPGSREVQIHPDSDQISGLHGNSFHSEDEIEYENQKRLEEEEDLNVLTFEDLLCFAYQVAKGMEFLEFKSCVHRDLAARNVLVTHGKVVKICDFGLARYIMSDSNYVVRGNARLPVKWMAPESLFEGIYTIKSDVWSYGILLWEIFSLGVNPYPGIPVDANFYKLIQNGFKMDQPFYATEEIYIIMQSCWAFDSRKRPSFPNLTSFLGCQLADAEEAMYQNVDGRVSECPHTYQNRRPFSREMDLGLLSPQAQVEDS

ZAP70 = biological target: T2, ZAP70 (Homo sapiens, UniProt P43403); experiment: biochemical; conditions: read-out: Percent control
T2 sequence (P43403 1-619): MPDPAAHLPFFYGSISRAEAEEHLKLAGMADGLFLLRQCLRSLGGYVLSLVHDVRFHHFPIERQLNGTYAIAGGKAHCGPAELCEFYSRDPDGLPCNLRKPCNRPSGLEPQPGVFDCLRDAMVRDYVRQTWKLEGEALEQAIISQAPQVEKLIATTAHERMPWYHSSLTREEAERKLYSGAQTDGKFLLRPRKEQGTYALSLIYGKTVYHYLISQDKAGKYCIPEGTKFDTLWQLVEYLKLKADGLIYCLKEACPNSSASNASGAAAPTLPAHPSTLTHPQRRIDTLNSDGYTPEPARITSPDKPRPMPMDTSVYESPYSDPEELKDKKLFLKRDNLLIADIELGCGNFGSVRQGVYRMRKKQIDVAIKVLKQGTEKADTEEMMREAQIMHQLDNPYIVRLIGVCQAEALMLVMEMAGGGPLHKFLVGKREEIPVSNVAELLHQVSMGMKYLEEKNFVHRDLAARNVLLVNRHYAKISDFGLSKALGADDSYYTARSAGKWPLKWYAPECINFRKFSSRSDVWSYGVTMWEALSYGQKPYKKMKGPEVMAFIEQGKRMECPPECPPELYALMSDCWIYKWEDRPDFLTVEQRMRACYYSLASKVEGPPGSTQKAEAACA

[2] = biological target: ABL1(F317L)-nonphosphorylated (Homo sapiens, UniProt P00519, F317L); experiment: biochemical; conditions: read-out: Percent control
[3] = biological target: ABL1(H396P)-phosphorylated (Homo sapiens, UniProt P00519, H396P); experiment: biochemical; conditions: read-out: Percent control
[4] = biological target: ABL1(Q252H)-nonphosphorylated (Homo sapiens, UniProt P00519, Q252H); experiment: biochemical; conditions: read-out: Percent control
FLT3(R834Q) = biological target: T3, FLT3(R834Q) (Homo sapiens, UniProt P36888, R834Q); experiment: biochemical; conditions: read-out: Percent control
T3 sequence (P36888 27-993 R834Q): T1 sequence (P36888 27-993 D835Y) with R808Q, Y809D

## Cc1ccc(NC(=O)c2ccc(CN3CCN(C)CC3)cc2)cc1Nc1nccc(-c2cccnc2)[n+]1[Pt-2]1([Cl])[NH2+]C2CCCCC2[NH2+]1 (stereo not drawn) [1b, oxaliplatin-imatinib]
HEK293 Mock transfected
  IC50: 10.6 ± 1.58 µM

## C#Cc1cccc(Nc2c3cc(OCCOC)c(OCCOC)cc3nc[n+]2[Pt@SP2-2]([NH3+])([NH3+])[Cl])c1 [2a, cisplatin-erlotinib]
[1]
  Percent control: 12%
ABL1-nonphosphorylated
  Percent control: 25%

## COc1cc2c(Nc3ccc(Br)cc3F)ncnc2cc1OCC1CCN(C)CC1 [Vandetanib, reference compound]
FLT3(D835Y)
  remaining activity at 10 µM: 7.7%
ZAP70
  remaining activity at 10 µM: 100%

## C#Cc1cccc(Nc2ncnc3cc(OCCOC)c(OCCOC)cc23)c1 [Erlotinib]
[2]
  remaining activity at 10 µM: 6%
[3]
  remaining activity at 10 µM: 0.6%
[4]
  remaining activity at 10 µM: 2.2%
FLT3(R834Q)
  remaining activity at 10 µM: 100%
